Reference: patent US20240199585A1, “SOLID FORMS OF (3R)-N-[2-CYANO-4-FLUORO-3-(3-METHYL-4-OXO-QUINAZOLIN-6-YL)OXY-PHENYL]-3-FLUORO-PYRROLIDINE-1-SULFONAMIDE” (Hoffmann-La Roche Inc., priority 2021, published 2024)

Tests used:
[1] = cited from earlier work
[2] = Moisture sorption/desorption (dynamic vapour sorption, DVS); assay type: physicochemical; conditions: for Masschange (DVS): from 0%-90% RH; for Hygroscopicity: increase in mass from 0%-RH to 90%-RH
Description: Moisture sorption/desorption data was collected on a DVS Advantage, a DVS Adventure, or a DVS Intrinsic (SMS Surface Measurements Systems) moisture balance system. The sorption/desorption isotherms were measured stepwise in a range from 0%-RH to 90%-RH at typically 25° C. A weight change of typically <0.001%/min was chosen as criterion to switch to the next level of relative humidity (with a maximum equilibration time of typically 24 hours, if the weight change criterion was not met). The data were corrected for the initial moisture content of the samples by taking the weight after drying of the samples at 0%-RH as zero point.
The hygroscopicity of a given substance was characterized (by close analogy with the European Pharmacopoeia) by the increase in mass when the relative humidity was raised from 0%-RH to 90%-RH: […]

[3] = High humidity storage experiments; assay type: physicochemical

| Masschange (DVS) [2] | Solid form stability in high humidity storage [3] | Solid form change during the DVS cycle ([2]; sorption/desorption cycle 0%-90% RH) | SMILES | brain permeability [1] | Hygroscopicity [2] |
| --- | --- | --- | --- | --- | --- |
| – | – | – | CC(C)(C)c1nc(-c2cccc(NS(=O)(=O)c3c(F)cccc3F)c2F)c(-c2ccnc(N)n2)s1 [Dabrafenib] | very poor | – |
| – | – | – | COC(=O)N[C@@H](C)CNc1nccc(-c2cn(C(C)C)nc2-c2cc(Cl)cc(NS(C)(=O)=O)c2F)n1 [Encorafenib] | very poor | – |
| – | – | – | CCCS(=O)(=O)Nc1ccc(F)c(C(=O)c2c[nH]c3ncc(-c4ccc(Cl)cc4)cc23)c1F [Vemurafenib] | very poor | – |
| ~3.8% | Recrystallization to Form A | – | Cn1cnc2ccc(Oc3c(F)ccc(NS(=O)(=O)N4CC[C@@H](F)C4)c3C#N)cc2c1=O [amorphous form, (3R)-N-[2-cyano-4-fluoro-3-(3-methyl-4-oxo-quinazolin-6-yl)oxy-phenyl]-3-fluoro-pyrrolidine-1-sulfonamide] | – | hygroscopic (weight increase 2.0% ≤ Dm < 15.0%) |
| < 0.2% | – | no solid form change | Cn1cnc2ccc(Oc3c(F)ccc(NS(=O)(=O)N4CC[C@@H](F)C4)c3C#N)cc2c1=O [polymorphic form A, (3R)-N-[2-cyano-4-fluoro-3-(3-methyl-4-oxo-quinazolin-6-yl)oxy-phenyl]-3-fluoro-pyrrolidine-1-sulfonamide] | – | not hygroscopic |
